Source: US20250381165A1, “Method of Use for Benzofuran Compounds” (Tampa Bay Research Institute, Inc., priority 2024, published 2025)
Entries after “also recorded” stand apart in the source; their conditions may differ.

Tests used:
[1] = test system: freshly isolated murine splenocytes; assay: CellTiter-Glo cell viability, primary splenocytes; assay type: cell-based
Method: BzFβ was then examined for its effect on the viability of several murine and human cell lines and primary murine splenocytes. The cytotoxicity of BzFβ was assessed using the CellTiter-Glo […] assay system according to manufacturer's instructions to determine BzFβ's effect on the viability of several murine and human cell lines and primary murine splenocytes.
Six- to ten-week-old female C57BL/6NCrl mice (Charles River Laboratories, Wilmington, MA; cat. no. 027) were maintained in accord with the NIH Guide for the Care and Use of Laboratory Animals. Mice were maintained in an INOVIVE individually ventilated cage system with 3 mice per cage containing 100% virgin wood pulp bedding (Harlan Teklad™, Inotiv Inc., West Lafayette, IN; cat. no. 7099). Water and food (Harlan Teklad™, Inotiv Inc., West Lafayette, IN; cat. no. 8640) were available ad libitum. […] The cell count was determined using the MUSE cell viability kit (MCH600103) and MUSE Cell Analyzer (Luminex Corp, Austin TX). […]
The cytotoxicity of BzFβ was assessed using the CellTiter-Glo cell […] viability assay system […] cat. no. […] CellTiter-Glo was added 1:1 in the media and the level of chemiluminescence was measured using luminescence at wavelengths of 200 nm to 700 nm through a photomultiplier on BioTek's Synergy HTX multimode microplate reader. […]

H-2Db on DC2.4 = target: T1, H-2Db on DC2.4 (Mus musculus, UniProt P01899); assay: FITC-labeled HPV peptide RAHYNIVTF binding to DC2.4; assay type: cell-based, murine; details: 25 µg/mL BzFβ 4 or 24 h, 1 h pulse
T1 construct: DC2.4 are a C57Bl/6 lineage murine cell line and as such they express MHC class I H-2Kb and H-2Db; endogenous in cells; host or cells: DC2.4
Method: For peptide loading studies, cultured cells were treated for various times as indicated in results and figure legends. Cells were centrifuged and washed using cold FACS buffer (DPBS with 5% FBS, 2 mM EDTA, 0.1% sodium azide). Cells were blocked using Fc block (bioLegend™; cat. no. 101320) for 10 min to 15 min to inhibit non-specific binding, followed by staining with fluorophore-conjugated antibody PE-labeled anti-MHC I/SIINFEKL (clone 25-D1.16, Invitrogen 12-5743-82), for 30 min at 4° C. For N-terminal FITC labeled H-2Db peptide RAHYNIVTF (AnaSpec Inc., Fremont, CA; cat. no.) cells were incubated with peptide for 1-4 h before washing and analysis. After washing, the cells were subjected to flow cytometric analysis with the Attune NxT Flow Cytometer (Invitrogen™). Cells were gated based on live single-cell populations and positives were assessed using isotype controls and fluor-minus-one analysis when needed. Data were analyzed using the Attune NxT software or FlowJo versions 10.7 and 10.8.
Cells were cultured as previously described and treated for various times as indicated in results and figure legends. […] Cells were gated based on live single-cell populations and positives were assessed using isotype controls and fluor-minus-one analysis when needed. Data were analyzed using the Attune NxT software or FlowJo versions 10.7 and 10.8. […]

[2] = In vivo toxicity after gavage, iv or im injection
Method: Six- to ten-week-old male and female C57BL/6NCrl mice (cat. no. 027, Charles River Laboratories, Wilmington MA) were used for all animal studies. The mice were maintained in accord with the NIH Guide for the Care and Use of Laboratory Animals. Experimental procedures were performed in accord with research protocols approved by the Tampa Bay Research Institute's Institutional Animal Care and Use Committee. Mice were maintained in an INOVIVE individually ventilated cage system with 3 mice per cage containing 100% virgin wood pulp bedding (Harlan Teklad™, Harlan Sprague Dawley Inc., Indianapolis, IA; cat. no. 7099). Water and food (Harland Teklad™; cat. no. 8640) were available ad libitum. The mice were maintained on a cycle of 12 h of light and 12 h of dark in an environment with a temperature of 74-76° […]. and 40-60% humidity. All cages underwent 40 air changes hourly in the negative pressure mode, in accordance with manufacturer's recommendations. Both the intake and exhaust air from the system were filtered through HEPA filters to maintain a clean environment. […]
Mice were gavaged with BzFβ at doses ranging from 25 mg/kg body to 100 mg/kg body weight, injected intravenously (iv) with 50 μg BzFβ or injected intramuscularly with BzFβ at 25 to 40 mg/kg body weight. For two weeks post-treatment, water intake and weight were monitored. […]

T1 sequence (P01899 25-362): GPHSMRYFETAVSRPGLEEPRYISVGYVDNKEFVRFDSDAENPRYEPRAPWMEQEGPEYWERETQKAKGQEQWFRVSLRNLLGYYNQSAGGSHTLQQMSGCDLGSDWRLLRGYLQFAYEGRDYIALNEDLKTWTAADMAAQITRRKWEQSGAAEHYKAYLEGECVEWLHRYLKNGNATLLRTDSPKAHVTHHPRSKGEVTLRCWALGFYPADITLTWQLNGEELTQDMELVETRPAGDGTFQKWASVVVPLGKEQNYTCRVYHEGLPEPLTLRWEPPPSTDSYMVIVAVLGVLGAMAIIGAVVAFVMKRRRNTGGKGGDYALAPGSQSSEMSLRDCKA
T1 sequence (P01887 21-119 partner): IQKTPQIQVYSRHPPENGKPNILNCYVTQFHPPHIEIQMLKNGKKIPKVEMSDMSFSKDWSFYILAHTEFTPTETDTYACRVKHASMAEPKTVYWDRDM

Compound: O=C(O)/C=C/c1ccc2occc2c1 [BzFβ, (2E)-3-(1-benzofuran-5-yl)prop-2-enoic acid]
- IC50 ([1]; Mus musculus, Splenocyte, freshly isolated murine splenocytes, CellTiter-Glo): 402 µM
- viability of primary murine splenocytes ([1]; concentrations below 50 µg/mL): minimally affected
- binding of FITC labeled HPV peptide to H-2Db (H-2Db on DC2.4): enhance peptide binding on both haplotypes; also recorded: significant increase in peptide binding
- in vivo toxicity ([2]; at the doses tested): non-toxic
- body and organ weights ([2]; gavage 25-100 mg/kg, iv 50 μg, im 25-40 mg/kg, two weeks): no differences were measured
